Laboratory results reported in patent US6600057B2, “Matrix metalloproteinase inhibitors” (Kimberly-Clark Worldwide, Inc., priority 2000, dated 2003).

Target: MMP-9 (Homo sapiens, UniProt P14780)
Assay: Fluorometric assay of MMP-9 inhibition (cleavage of a fluorogenic peptide substrate)
Format: biochemical
Conditions: incubated 30 minutes at room temperature
Experimental: The second assay utilized the technique of fluorescence resonance energy transfer (FRET). The substrate peptide (Calbiochem) comprised seven amino acids coupled to a carboxyl terminal dinitrophenyl acceptor, and an amino terminal 2-aminobenzo-anthraniloyl (Abz) moiety donor. Cleavage of this substrate by MMP-9 results in the liberation of a fluorescent product (365 nm excitation, 450 nm emission). […] MMP at a concentration of 0.5 μM was mixed with varying amounts of compound and incubated at 25° C. for 10 minutes in order to effect binding. The protein mixture was added to the peptide substrate, and was quickly mixed. Fluorescence intensity as a function of time was measured with a Dynex MFX fluorescence microtiter plate reader. Fluorescence intensity was related back to moles of peptide cleaved by producing a standard curve with an Abz containing non-FRET peptide. Inhibitory constants were derived from the curves as above. (Segel, IH. (1993) Enzyme Kinetics: Behavior and analysis of rapid equilibrium and steady-state enzyme systems. Wiley Classics Library, John Wiley and Sons, Inc. New York.)
The inhibition of MMP-9 by AQCA was measured by fluorometric assay. The fluorometric assay measures the cleavage of a fluorogenic peptide substrate (excitation wavelength 355 nm, emission wavelength 455 nm). MMP-9 is incubated with 0 mM AQCA (open circles), 1 mM AQCA (closed circles); or 2 mM AQCA (closed squares) for 30 minutes at room temperature. Fluorescence is measured at the times (in minutes) indicated.
Inhibition of MMP-9. Fluorometric assay which measures the cleavage of a fluorogenic peptide substrate (excitation wavelength 355 nm, emission wavelength 455 nm). […] Fluorescence is measured at the times (in minutes) indicated.
The inhibition of MMP-9 by anthraquinyl-mercaptoethylamine was measured by fluorometric assay. […] Fluorescence is measured at the times (in minutes) indicated.
The inhibition of MMP-9 by anthraquinyl alanine hyroxamate was measured by fluorometric assay. […] Fluorescence is measured at the times (in minutes) indicated.

[1] = 0.25 mM compound, FIG. 3 and FIG. 4

Sequence of MMP-9 (P14780 94-707, species assumed): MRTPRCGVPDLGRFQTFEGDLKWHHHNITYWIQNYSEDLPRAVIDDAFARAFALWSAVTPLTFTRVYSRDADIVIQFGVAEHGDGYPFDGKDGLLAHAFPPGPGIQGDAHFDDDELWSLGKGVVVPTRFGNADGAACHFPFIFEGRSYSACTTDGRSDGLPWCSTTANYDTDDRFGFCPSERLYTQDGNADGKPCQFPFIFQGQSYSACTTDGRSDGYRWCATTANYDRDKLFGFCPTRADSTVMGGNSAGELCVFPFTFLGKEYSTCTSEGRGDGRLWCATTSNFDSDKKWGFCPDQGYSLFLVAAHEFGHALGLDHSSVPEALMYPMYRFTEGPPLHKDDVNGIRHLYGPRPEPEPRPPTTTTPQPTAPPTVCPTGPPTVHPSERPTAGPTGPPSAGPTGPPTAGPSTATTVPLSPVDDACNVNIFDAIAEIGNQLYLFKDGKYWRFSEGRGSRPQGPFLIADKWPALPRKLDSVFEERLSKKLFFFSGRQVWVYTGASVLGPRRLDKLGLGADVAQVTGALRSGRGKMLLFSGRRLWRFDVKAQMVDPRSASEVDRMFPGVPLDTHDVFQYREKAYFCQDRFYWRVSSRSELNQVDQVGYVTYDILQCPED

SMILES | inhibition of the enzymatic activity of MMP-9 (1 mM or 2 mM AQCA, FIG. 2) | inhibition of the enzymatic activity of MMP-9 [1]
O=C(O)c1cc(O)c2c(c1)C(=O)c1cccc(O)c1C2=O [AQCA, 4,5-dihydroxyanthaquinone-2-carboxylic acid] | inhibited the enzymatic activity of MMP-9 in a dose dependent manner | 
O=C(NCCS)c1cc(O)c2c(c1)C(=O)c1cccc(O)c1C2=O [anthraquinyl mercaptoethylamine, anthraquinyl-mercaptoethyamine] |  | inhibited the enzymatic activity of MMP-9
CC(NC(=O)c1cc(O)c2c(c1)C(=O)c1cccc(O)c1C2=O)C(=O)NO (stereo not drawn) [anthraquinyl alanine hyroxamate, anthraquinyl-alanine hydroxamate] |  | inhibited the enzymatic activity of MMP-9
